Data published in patent US7628984B2, “Micronutrient formulations for pulmonary and heart health” (Premier Micronutrient Corporation, priority 2005, dated 2009).
Where two headings read alike, the source gives them in different places.

What was measured:
connexin gene = settings: mammalian cells in culture; cited from earlier work
[1] = cited from earlier work
[2] = test system: patients with idiopathic dilated cardiomyopathy; settings: Co-enzyme Q10 33.3 mg thrice/day, 126 patients, 6 y; cited from earlier work
[3] = test system: diabetes type 2 patients with or without macrovascular complications; settings: 1200 IU/day, 75 patients, 5 months; cited from earlier work
[4] = test system: patients with chronic renal failure; settings: 800 IU, 33 patients, 12 weeks, cited from earlier work
[5] = test system: patients with angiographically proven coronary atherosclerosis; settings: cited from earlier work
adenylate cyclase = settings: cited from earlier work
[6] = Oral ingestion of α-TS, plasma levels; format: in vivo; settings: 800 IU/day, humans
Text: Also, the oxidative DNA damage produced by oxidized vitamin C could be ameliorated by vitamin E. The form and type of vitamin E used are also important in any clinical trial. […] Selenium is a co-factor of glutathione perodidase, and Se-glutathione peroxidase also acts as an antioxidant. Therefore, selenium supplementation together with other antioxidants is also essential.

[7] = test system: patients undergoing angioplasty; settings: 317 patients, 4 weeks before and 6 months after angioplasty, vs placebo, cited from earlier work
[8] = test system: 11,000 people of age 67 or over; settings: follow up 6 years; cited from earlier work
[9] = test system: men (high risk patients with prior cardiac events); settings: 50 mg/day, 1862 men, 6 y, vs placebo, cited from earlier work
[10] = test system: 39,910 male health professionals; settings: at least 100 IU per day for at least 2 years vs no vitamin E; cited from earlier work
[11] = test system: patients having coronary angioplasty; settings: cited from earlier work
[12] = test system: smokers with hypercholesterolemia; settings: 544 IU, 42 patients, 4 months; cited from earlier work
rabbits = settings: cited from earlier work
[13] = test system: patients with high risk for cardiac events; settings: Vitamin E 400 IU, 9,541 patients, follow-up 4.5 y, vs control, cited from earlier work
chickens = settings: cited from earlier work
male monkeys = settings: vs unsupplemented atherosclerotic-promoting diet; cited from earlier work
heavy smokers = settings: 800 IU daily, 10 heavy smokers, 3 weeks, cited from earlier work
[14] = test system: intracellular levels of glutathione; settings: cited from earlier work
[15] = test system: healthy male subjects receiving methionine; settings: Vit. C 2 g, methionine 100 mg/kg, 6 hours; cited from earlier work
[16] = oral supplementation, human subjects; cited from earlier work
[17] = 400 or 800 IU per day, median follow-up 510 days

Question: Which “expression of the connexin gene” value (connexin gene) does the source give for vitamin A here?
Answer: does not produce such an effect

Question: And the “toxicity after prolonged consumption in adults” value ([1]; daily doses higher than twice the RDA)?
Answer: liver and skin toxicity

Question: Which results are given for `COC1=C(OC)C(=O)C(C/C=C(\C)CC/C=C(\C)CC/C=C(\C)CC/C=C(\C)CC/C=C(\C)CC/C=C(\C)CC/C=C(\C)CC/C=C(\C)CC/C=C(\C)CCC=C(C)C)=C(C)C1=O` [Coenzyme Q10]?
Answer: Cardiac muscle function [2]: useful in improving; doses with no known toxicity in humans ([1]; in vivo): up to 300 mg/d

Question: With `CC1=C(/C=C/C(C)=C/C=C/C(C)=C/C=C/C=C(C)/C=C/C=C(C)/C=C/C2=C(C)CCCC2(C)C)C(C)(C)CCC1` [BC, β-carotene] as the molecule, how does the “expression of the connexin gene” value (connexin gene) read?
Answer: enhances

Question: And the “doses that can cause yellowing of skin and pigment deposits in the eye” value ([1]; reversible upon discontinuation)?
Answer: ≥ 100 mg/day

Question: With `Cc1c(C)c2c(c(C)c1O)CC[C@@](C)(CCC[C@H](C)CCC[C@H](C)CCCC(C)C)O2` [Vitamin E (d-αT), d-alpha tocopherol] as the molecule, how does the “C-reactive protein (and monocyte interleukin-6)” value [3] read?
Answer: lowered

Question: What about the LDL oxidation ([4]; listed as Vit. E (d-αT)) of the same molecule?
Answer: reduced

Question: What about the LDL oxidation ([4]; listed as α-tocopherol) of the same molecule?
Answer: decreased

Question: What about the “Death, non-fatal MI” value ([5]; 400 or 800 IU, 2,002 patients, follow-up 510 d) of the same molecule?
Answer: reduced

Question: What does the source list for `Cc1c(C)c2c(c(C)c1OC(=O)CCC(=O)O)CC[C@@](C)(CCC[C@H](C)CCC[C@H](C)CCCC(C)C)O2` [α-TS, α-tocopherol-succinate]?
Answer: action of PGE2 on adenylate cyclase (adenylate cyclase): reduce; plasma levels of α-tocopherol and α-TS [6]: increased

Question: Which Restenosis [7] does the source give for `CC(C)(Sc1cc(C(C)(C)C)c(O)c(C(C)(C)C)c1)Sc1cc(C(C)(C)C)c(O)c(C(C)(C)C)c1` [Probucol] here?
Answer: probucol reduced

Question: And the Restenosis ([7]; listed as probucol)?
Answer: effective in reducing

Question: With Vitamin E as the molecule, how does the “reduction in mortality from CAD” value [8] read?
Answer: 47%

Question: And the “Death, CAD events” value [9]?
Answer: no effect

Question: What about the “Death, CAD events” value ([9]; listed as vitamin E) of the same molecule?
Answer: no significant difference

Question: And the “C-reactive protein (and monocyte interleukin-6)” value [3]?
Answer: reduced

Question: And the “lower risk of CAD” value [10]?
Answer: 37%

Question: What about the “restenosis, % of patients” value ([11]; 1200 IU daily for 4 months, placebo 50%) of the same molecule?
Answer: 34.6%

Question: And the Stenosis ([11]; 1200 IU, 100 patients, 4 months)?
Answer: reduced

Question: And the “FMD (endothelial-dependent flow-mediated dilation)” value [12]?
Answer: improved

Question: What about the “development of early aortic atherosclerotic lesions” value (rabbits) of the same molecule?
Answer: reduce

Question: And the “Death, stroke, non-fatal MI” value [13]?
Answer: no effect

Question: What about the “Death, stroke, non-fatal MI” value ([13]; listed as vitamin E) of the same molecule?
Answer: did not reduce

Question: And the “doses used for short-term clinical studies without adverse effects” value ([1]; in vivo)?
Answer: up to 2,000 IU/d

Question: And the “development of early aortic atherosclerotic lesions” value (chickens)?
Answer: reduce

Question: And the “increase in cardiovascular death” value [5, 17]?
Answer: 18%

Question: What about the “lower risk of non-fatal myocardial infarction than the placebo group” value [5, 17] of the same molecule?
Answer: 77%

Question: And the stenosis progression (male monkeys)?
Answer: decreased

Question: And the “Oxidative stress (levels of oxidative stress markers)” value (heavy smokers)?
Answer: increases

Question: What about the “Oxidative stress (levels of oxidative stress markers)” value (heavy smokers; listed as vitamin E) of the same molecule?
Answer: increased

Question: For `CC(=O)N[C@@H](CS)C(=O)O` [N-acetylcysteine], which “doses that can cause trace metal deficiencies” value ([1]; in vivo) is on record?
Answer: ≥ 1000 mg/day

Question: And the “intracellular levels of glutathione” value [14]?
Answer: increase

Question: With `CC(=O)Oc1c(C)c(C)c2c(c1C)CCC(C)(CCC[C@H](C)CCC[C@H](C)CCCC(C)C)O2` (stereo partly drawn) [Vitamin E(α-TA), alpha tocopheryl acetate] as the molecule, how does the “FMD (endothelial-dependent flow-mediated dilation)” value [12] read?
Answer: improved

Question: Which “Plasma homocysteine, arterial stiffness” value [15] does the source give for `O=C1O[C@H]([C@@H](O)CO)C(O)=C1O` [Vit. C, ascorbic acid] here?
Answer: reduced

Question: With `N[C@@H](CCC(=O)N[C@@H](CS)C(=O)NCC(=O)O)C(=O)O` [glutathione] as the molecule, how does the “plasma levels of glutathione” value [16] read?
Answer: failed to significantly increase

Question: For `O=C(O)CCCCC1CCSS1` (stereo not drawn) [α-lipoic acid], which “intracellular levels of glutathione” value [14] is on record?
Answer: increase
